Experimental data reported in paper PMC11062922 (Nature Chemical Biology, 2023).
Read-outs that look alike come from different tables or passages of the source.

What was measured:
CSNK2A2 = CSNK2A2 (Homo sapiens, UniProt P19784); test: Kinobeads two-dose competition binding: CSNK2A2; parameters: to maximize the representation of endogenous proteins; endogenous in cells; conditions: for CATDS: target CSNK2A2
Excerpt: (§1) Briefly, Kinobeads comprise seven broad-spectrum small molecule kinase inhibitors immobilized on Sepharose beads. […]. Compounds of interest are set to compete for target protein binding with Kinobeads in the lysate and the amount of a given protein bound to Kinobeads in the presence of a compound can be quantified relative to a dimethylsulfoxide (DMSO) vehicle control by label-free mass spectrometry. This assay measures the physical interaction of a compound with thousands of endogenous proteins in parallel and, when systematically increasing the concentration of competitor, enables the calculation of an apparent interaction constant ( Kdapp ) for each compound and protein.
(§2) Kinobeads pulldown experiments were performed as described previously[13],[14],[17] with minor modification. […] The protein concentration was adjusted to 5 mg ml^−1. Kinase inhibitors were spiked into 0.5 ml of cell lysate at final concentrations of 100 and 1,000 nM (or DMSO, 0.3, 1, 3, 10, 30, 100, 300 and 1,000 nM for full dose experiments). […] Lysates were incubated for 45 min at 4 °C. Subsequently, lysates were incubated with Kinobeads ε (17.5 µl of settled beads) for 30 min at 4 °C. To assess the degree of protein depletion from the lysates by Kinobeads, the flow through of the DMSO control was recovered for a pulldown of pulldown experiment where the lysate was incubated a second time with fresh Kinobeads. Beads were washed in three steps with buffer containing 0.4%, 0.2% and no IGEPAL. Bound proteins were reduced with 50 mM DTT in 8 M Urea, 40 mM Tris-HCl pH 7.4 for 30 min at room temperature. After alkylation with 55 mM chloroacetamide, the urea concentration was reduced to 1–2 M and proteins were digested with trypsin. Acidified peptides were desalted and concentrated using SepPak tC18 µEluation plates (Waters). Samples were frozen, dried by vacuum centrifugation and stored at −20 °C.
(§3) Each kinase inhibitor was processed together with all DMSO controls of the same plate. Additionally, each search was supplemented with five high quality DMSO controls for consistent peptide identification and protein grouping. The resultant file (proteinGroups.txt) was used for subsequent filtering, normalization, data visualization and target annotation that was automatically performed by a data processing pipeline built in house that used R (including the ‘drc’ and ‘heatmap’ packages). First, reverse hits, potential contaminants and not quantified proteins in the DMSO control samples were discarded. Protein raw and label-free quantification intensities were normalized to the median DMSO control intensity to obtain relative residual binding intensities for each protein group at every inhibitor concentration and standard deviations of the DMSO control intensity were calculated. IC50 values were estimated based on the following equation IC50=I×100−inhibition/inhibition where [I] is the inhibitor concentration that was used for IC50 calculation and ‘inhibition’ the relative residual binding intensity. […]. Estimated Kdapp values were then calculated by multiplying the estimated IC50 values with a protein-dependent correction factor that was limited to a maximum value of one. The correction factor accounts for the depletion of a target protein from the lysate by Kinobeads. The depletion can be measured by the ratio of the amount of protein captured in two consecutive pulldowns of the same DMSO control lysate. In this study, correction factors were determined in separate experiments using the same lysate mixture and the same bead batch. Correction factors were set to the median of all correction factors. Targets of kinase inhibitors were annotated using the previously published random forest classifier. A training data set was annotated manually. […]

BMPR2 = target: T1, BMPR2 (Homo sapiens, UniProt Q13873); test: Kinobeads two-dose competition binding: BMPR2; conditions: for CATDS: target BMPR2
T1 construct: to maximize the representation of endogenous proteins; endogenous in cells
T1 sequence (Q13873 27-1038): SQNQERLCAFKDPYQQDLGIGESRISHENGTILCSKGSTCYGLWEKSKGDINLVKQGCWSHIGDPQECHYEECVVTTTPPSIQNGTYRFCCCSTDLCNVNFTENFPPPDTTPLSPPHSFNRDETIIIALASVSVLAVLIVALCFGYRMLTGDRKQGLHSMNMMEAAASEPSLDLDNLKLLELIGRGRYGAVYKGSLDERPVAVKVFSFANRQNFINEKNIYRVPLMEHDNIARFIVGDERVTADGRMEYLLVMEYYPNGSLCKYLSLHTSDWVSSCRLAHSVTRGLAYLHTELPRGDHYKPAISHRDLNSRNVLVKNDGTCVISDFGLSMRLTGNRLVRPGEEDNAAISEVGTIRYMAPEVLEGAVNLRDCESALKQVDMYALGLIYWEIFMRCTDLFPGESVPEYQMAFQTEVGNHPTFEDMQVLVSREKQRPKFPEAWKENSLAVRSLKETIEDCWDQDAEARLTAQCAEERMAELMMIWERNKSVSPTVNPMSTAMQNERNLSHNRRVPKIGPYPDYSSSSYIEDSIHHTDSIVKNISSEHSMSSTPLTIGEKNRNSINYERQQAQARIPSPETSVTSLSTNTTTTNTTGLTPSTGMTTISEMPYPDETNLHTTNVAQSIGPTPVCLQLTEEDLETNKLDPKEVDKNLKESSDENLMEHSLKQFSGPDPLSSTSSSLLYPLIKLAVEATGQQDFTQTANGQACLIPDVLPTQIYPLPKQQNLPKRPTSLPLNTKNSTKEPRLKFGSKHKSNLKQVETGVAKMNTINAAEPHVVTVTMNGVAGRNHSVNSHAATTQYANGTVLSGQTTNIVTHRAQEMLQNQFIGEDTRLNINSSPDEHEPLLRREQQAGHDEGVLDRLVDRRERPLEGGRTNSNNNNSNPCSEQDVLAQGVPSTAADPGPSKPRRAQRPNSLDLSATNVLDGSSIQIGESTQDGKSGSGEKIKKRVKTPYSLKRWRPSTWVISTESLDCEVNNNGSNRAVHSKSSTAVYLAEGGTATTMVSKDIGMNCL
Excerpt: as §1, §2, §3

ABL2 = target: T2, ABL2 (Homo sapiens, UniProt P42684); test: Kinobeads two-dose competition binding: ABL2; conditions: sheet CATDS matrix 2; Gene Name ABL2
T2 construct: endogenous in cells

ABL1 = ABL1 (Homo sapiens, UniProt P00519); test: Kinobeads two-dose competition binding: ABL1; conditions: sheet CATDS matrix 2; Gene Name ABL1
ATM = target: T3, ATM (Homo sapiens, UniProt Q13315); test: Kinobeads two-dose competition binding: ATM; conditions: for CATDS: target ATM
T3 construct: endogenous in cells
Excerpt: as §1, §2, §3

SMILES | CATDS (CSNK2A2) | CATDS (BMPR2) | CATDS (ABL2) | CATDS (ABL1) | CATDS (ATM) | potency estimated from few doses (CSNK2A2; Kinobeads two-dose screen (binding), read-out: Kdapp CSNK2A2) [nM] | potency estimated from few doses (BMPR2; Kinobeads two-dose, Drugmatrix - all 2, read-out: apparent Kd BMPR2) [nM] | potency estimated from few doses (ATM; Kinobeads two-dose, Drugmatrix - all 2, read-out: apparent Kd ATM) [nM] | potency estimated from few doses (CSNK2A2; read-out: Lestaurtinib Drugmatrix value, Gene Name CSNK2A2) [nM] | potency estimated from few doses (CSNK2A2; CSNK2A2, read-out: Kinobeads Data) [nM]
CCc1cc2c(cc1N1CCC(N3CCOCC3)CC1)C(C)(C)c1[nH]c3cc(C#N)ccc3c1C2=O [Alectinib] | 0 | 0 | 0 | 0 | 0 |  |  |  |  | 
CCN1CCN(Cc2ccc(Nc3ncc(F)c(-c4cc(F)c5nc(C)n(C(C)C)c5c4)n3)nc2)CC1 [Abemaciclib] | 0.06221 | 0 | 0 | 0 | 0 |  |  |  |  | 
Nc1ncnc2[nH]c(-c3ccccc3)nc12 [AH5015_KCGS] | 0 | 0 | 0 | 0 | 0 | > 1000 |  |  |  | 
N#CC1(c2ccc(NC(=O)c3cccnc3NCc3ccncc3)cc2)CCCC1 [Apatinib] | 0 | 0 | 0 | 0 | 0 |  |  |  |  | 
CC(C)N1CC(=O)N(C)c2cnc(Nc3cccc(S(=O)(=O)CCN4CCOCC4)c3)nc21 [BI00009348] |  |  | 0 | 0 |  |  | 646 | 112 |  | 
C#Cc1cccc(Nc2ncnc3cc(OC)c(OC4CCN(C)CC4)cc23)c1 [BI00007366] |  |  | 0 | 0 |  |  |  |  |  | 
C[C@]12O[C@H](C[C@]1(O)CO)n1c3ccccc3c3c4c(c5c6ccccc6n2c5c31)CNC4=O [Lestaurtinib] |  |  |  |  |  |  |  |  | 415 | 
COc1cc(Nc2ncc3c(C)nc(-c4cc5ccccc5[nH]4)n3n2)cc(OC)c1OC [GW869516X] |  |  |  |  |  |  |  |  |  | 56
CN(C)C/C=C/C(=O)Nc1cc2c(Nc3ccc(F)c(Cl)c3)ncnc2cc1O[C@H]1CCOC1 [Afatinib] | 0 | 0 |  | 0 | 0 |  |  |  |  | 
